Experimental findings from patent US8114888B2, “Isothiazoloquinolones and related compounds as anti-infective agents” (Achillion Pharmaceuticals, Inc., priority 2005, dated 2012) are described below.

By melting point is commonly meant the temperature, or range, at which the solid turns liquid. A word on the CC50: it is the concentration giving 50% cytotoxicity. Higher therefore signals lower toxicity to the cells.

Data set [1] can be described thus: Cell viability staining with Alamar Blue (compound cytotoxicity). It counts as cell-based. Conditions: positive control with known CC50. As for the experimental part: To determine whether the microcidal effect observed against S. aureus and E. coli is specific to bacterial cells, compounds are screened for cell viability effects on several human cell types.
Optimal cell density is first determined by plating cells in a 96-well plate standard sterile tissue culture plates in 100 μl media, 10% FBS at six cell densities from 500 cells/well to 15,000 cells/well. A cell free well containing only media is used as a control. Cells are incubated at 37° C. in a 5% CO2 incubator for 24 hours. 10% culture volume (10 ul) of Alamar Blue (Biosource, DAL1100, 100 mL) is then added. Cells are incubated at 37° C. in a 5% CO2 incubator and read in a Victor V plate reader, 544 nm excitation, 590 nm emission, at 3, 4, and 24 hours after the addition of Alamar Blue. The cell number vs. change in fluorescence is plotted to determine linearity of signal vs. cell number. The optimal density varies between 500-15,000 cells/well depending on the specific cell type. […]
Cells are plated at optimal cell density in a standard sterile tissue culture 96 well plate, and incubated at 37° C. […] Plates are incubated 4 hours at 37° C. in a 5% CO2 incubator and read in a Victor V plate reader, 544 nm excitation, 590 nm emission. […]
The change in fluorescence vs. concentration of test compound is plotted to determine the cytotoxicity of the compound. […]
In general terms: Resazurin is reduced to fluorescent resorufin, in cell work by metabolically active cells.

For the compound `NC1CCc2cc(-c3cc4c(cc3F)c(=O)c3c(=O)[nH]sc3n4C3CC3)ccc2C1` (racemic) [Compound 31, (rac)-7-(6-Amino-5,6,7,8-tetrahydronaphthalen-2-yl)-9-cyclopropyl-6-fluoro-9H-isothiazolo[5,4-b]quinoline-3,4-dione], the melting point is > 257 °C (dec.). With `CC(C)(C)c1ccc(C(O)CCCN2CCC(C(O)(c3ccccc3)c3ccccc3)CC2)cc1` (stereo not shown) [Terfenadine], the CC50 in data set [1] (Chinese hamster, CHO cells (Chinese hamster ovary)) lay within 4.3 to 6.5 µM; in data set [1] (human, Hep 2 cells (laryngeal carcinoma)), 3 to 5 µM. As for `O=c1[nH]sc2c1c(=O)c1cc(F)c(C3=CCNCC3)cc1n2C1CC1`, the melting point was > 241 °C (dec.).
